Source: US20140228377A1, “METHYLPIPERIDINE DERIVATIVE” (TAISHO PHARMACEUTICAL CO., LTD., priority 2011, published 2014)
Where two headings read alike, the source gives them in different places.

Experiments:
[1] = biological target: T1, orexin-2 receptor (hOX2R) (Homo sapiens, UniProt O43614); assay: Orexin antagonistic activity assay (intracellular Ca2+, FDSS) in CHO cells expressing hOX2R; format: cell-based
T1 construct: expressed in transfected cells; host or cells: Chinese hamster ovary (CHO) cells
T1 sequence (O43614 1-444): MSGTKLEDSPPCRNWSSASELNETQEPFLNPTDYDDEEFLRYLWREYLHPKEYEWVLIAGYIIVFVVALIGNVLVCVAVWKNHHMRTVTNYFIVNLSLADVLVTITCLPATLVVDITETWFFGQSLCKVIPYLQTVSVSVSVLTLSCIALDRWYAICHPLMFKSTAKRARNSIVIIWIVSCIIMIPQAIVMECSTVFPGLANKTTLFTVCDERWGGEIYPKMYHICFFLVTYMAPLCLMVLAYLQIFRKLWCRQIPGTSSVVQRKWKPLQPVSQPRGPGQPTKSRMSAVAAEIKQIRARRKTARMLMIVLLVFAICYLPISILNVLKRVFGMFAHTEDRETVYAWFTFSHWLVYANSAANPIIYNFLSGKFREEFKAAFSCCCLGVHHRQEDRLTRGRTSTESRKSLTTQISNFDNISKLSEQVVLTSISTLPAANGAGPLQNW
Experimental: (§1) The antagonistic activity of each test compound against human orexin-1 receptor (hOX1R) and orexin-2 receptor (hOX2R) was assayed by a modification of a method described in the literature (Toshikatsu Okumura et al., Biochemical and Biophysical Research Communications 280, 976-981, 2001). Chinese hamster ovary (CHO) cells forced to express hOX1R or hOX2R were inoculated at a density of 20,000 cells/well to a 96-well Black clear bottom plate (Nunc) and cultured at 37° C. for 16 hours under 5% CO2 conditions in a Ham's F-12 medium containing 0.1 mM MEM nonessential amino acids, 0.5 mg/ml G418, and 10% fetal bovine serum (all from Invitrogen Corp.). After removal of the medium, 100 μL of a buffer solution for assay (25 mM HEPES (Dojindo Laboratories), Hanks' balanced salt solution (Invitrogen Corp.), 0.1% bovine serum albumin, 2.5 mM probenecid, and 200 μg/ml Amaranth (all from Sigma-Aldrich Corp.), pH 7.4) containing 0.5 μM Fluo-3 AM ester (Dojindo Laboratories) was added to the cells, which were then incubated at 37° C. for 60 minutes under 5% CO2 conditions. After removal of the buffer solution for assay containing Fluo-3 AM ester, each test compound was dissolved at a concentration of 10 mM in dimethyl sulfoxide and diluted with a buffer solution for assay. Then, 150 μL of the solution was added to the cells, which were then incubated for 30 minutes.
(§2) A ligand peptide (Pyr-[…]NH2; Peptide Institute, Inc.) derived from human orexin-A by the substitution of two amino acids was diluted with a buffer solution for assay to final concentrations of 300 pM for hOX1R and 3 nM for hOX2R. Reaction was initiated by the addition of 50 μL of this ligand solution. The fluorescence intensity of the reaction was measured in each well every second for 3 minutes using Functional Drug Screening System (FDSS; manufactured by Hamamatsu Photonics K.K.), and the maximum fluorescence intensity was used as an index for intracellular Ca^2+ concentration to determine antagonistic activity. The antagonistic activity of the test compound was calculated with fluorescence intensity from a well supplemented with only a diluting buffer solution as 100% and fluorescence intensity from a well supplemented with a buffer solution free from the ligand and the compound as 0%. The 50% inhibitory concentration (IC50 value) was determined on the basis of fluorescence intensity derived from the test compound added at varying concentrations.

[2] = biological target: T2, human orexin-1 receptor (hOX1R) (Homo sapiens, UniProt O43613); assay: Orexin antagonistic activity assay (intracellular Ca2+, FDSS) in CHO cells expressing hOX1R; format: cell-based
T2 construct: expressed in transfected cells; host or cells: Chinese hamster ovary (CHO) cells
T2 sequence (O43613 1-425): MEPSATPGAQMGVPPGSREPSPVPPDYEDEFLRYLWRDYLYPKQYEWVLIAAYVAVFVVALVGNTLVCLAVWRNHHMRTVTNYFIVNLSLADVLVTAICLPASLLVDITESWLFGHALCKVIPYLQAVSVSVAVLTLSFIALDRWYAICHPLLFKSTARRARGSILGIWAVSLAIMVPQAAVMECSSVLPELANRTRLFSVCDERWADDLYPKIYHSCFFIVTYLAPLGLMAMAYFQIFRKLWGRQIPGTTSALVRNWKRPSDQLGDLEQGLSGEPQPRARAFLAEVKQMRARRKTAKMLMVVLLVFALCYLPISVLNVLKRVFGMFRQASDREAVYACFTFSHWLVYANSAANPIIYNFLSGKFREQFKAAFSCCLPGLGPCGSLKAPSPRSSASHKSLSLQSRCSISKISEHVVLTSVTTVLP
Experimental: as §1, §2

[3] = CHO cells expressing hOX2R, ligand peptide 3 nM, Fluo-3 maximum fluorescence intensity, read-out: IC50 value OX2
[4] = CHO cells expressing hOX1R, ligand peptide 300 pM, Fluo-3 maximum fluorescence intensity, read-out: IC50 value OX1

C[C@@H]1CC[C@@H](c2nc3cc(C(F)(F)F)ccc3o2)CN1C(=O)c1cc(Cl)ccc1-c1ncccn1 [Example 39, [5-Chloro-2-(pyrimidin-2-yl)phenyl]{(2R,5R)-2-methyl-5-[5-(trifluoromethyl)-1,3-benzoxazol-2-yl]piperidin-1-yl}methanone] gave an IC50 [1, 3] of 26.3 nM and an IC50 [2, 4] of 123 nM.

In the case of C[C@@H]1CC[C@@H](c2nc3cc(F)ccc3o2)CN1C(=O)c1ccccc1-n1nccn1 [Example 28, [(2R,5R)-5-(5-Fluoro-1,3-benzoxazol-2-yl)-2-methylpiperidin-1-yl][2-(2H-1,2,3-triazol-2-yl)phenyl]methanone], the IC50 [1, 3] is reported as 1.5 nM and the IC50 [2, 4] is reported as 50.4 nM.

With Cc1ccc(-n2nccn2)c(C(=O)N2C[C@H](c3nc4cc(F)ccc4o3)CC[C@H]2C)n1 (single isomer, unassigned) [Example 11, [(2R*,5R*)-5-(5-Fluoro-1,3-benzoxazol-2-yl)-2-methylpiperidin-1-yl][6-methyl-3-(2H-1,2,3-triazol-2-yl)pyridin-2-yl]methanone] the IC50 [1, 3] was 43.7 nM and the IC50 [2, 4] was 42.1 nM.

Work on Cc1ccc(-c2ncccn2)c(C(=O)N2CC(c3nc4cc(Cl)ccc4o3)CC[C@H]2C)n1 (single isomer, unassigned) [Example 4, [(2R*,5R*)-5-(5-Chloro-1,3-benzoxazol-2-yl)-2-methylpiperidin-1-yl][6-methyl-3-(pyrimidin-2-yl)pyridin-2-yl]methanone] yielded an IC50 [1, 3] of 17.2 nM and an IC50 [2, 4] of 4.3 nM.

For C[C@@H]1CC[C@@H](c2nc3cc(F)c(F)cc3o2)CN1C(=O)c1ccc(F)cc1-n1nccn1 [Example 55, [(2R,5R)-5-(5,6-Difluoro-1,3-benzoxazol-2-yl)-2-methylpiperidin-1-yl][4-fluoro-2-(2H-1,2,3-triazol-2-yl)phenyl]methanone], the IC50 [1, 3] was 9.4 nM and the IC50 [2, 4] was 207 nM.

Work on Cc1ccc(-n2nccn2)c(C(=O)N2C[C@H](c3nc4cc(F)ccc4o3)CC[C@H]2C)c1 (single isomer, unassigned) [Example 10, [(2R*,5R*)-5-(5-Fluoro-1,3-benzoxazol-2-yl)-2-methylpiperidin-1-yl][5-methyl-2-(2H-1,2,3-triazol-2-yl)phenyl]methanone] yielded an IC50 [1, 3] of 4.9 nM and an IC50 [2, 4] of 4.8 nM.

C[C@@H]1CC[C@@H](c2nc3cc(F)c(F)cc3o2)CN1C(=O)c1cc(Cl)ccc1-c1ncccn1 [Example 53, [5-Chloro-2-(pyrimidin-2-yl)phenyl][(2R,5R)-5-(5,6-difluoro-1,3-benzoxazol-2-yl)-2-methylpiperidin-1-yl]methanone] showed an IC50 [1, 3] of 13.2 nM and an IC50 [2, 4] of 56.3 nM.

Compound Cc1ccc(-c2ncccn2)c(C(=O)N2C[C@H](c3nc4c(Cl)cccc4o3)CC[C@H]2C)c1 [Example 69, [(2R,5R)-5-(4-Chloro-1,3-benzoxazol-2-yl)-2-methylpiperidin-1-yl][5-methyl-2-(pyrimidin-2-yl)phenyl]methanone] has an IC50 [1, 3] of 5.5 nM and an IC50 [2, 4] of 4.4 nM.

Compound C[C@@H]1CC[C@@H](c2nc3cc(Cl)ccc3o2)CN1C(=O)c1cccc(F)c1-n1nccn1 [Example 15, [(2R,5R)-5-(5-Chloro-1,3-benzoxazol-2-yl)-2-methylpiperidin-1-yl][3-fluoro-2-(2H-1,2,3-triazol-2-yl)phenyl]methanone] has an IC50 [1, 3] of 9.7 nM and an IC50 [2, 4] of 142 nM.

With C[C@@H]1CC[C@@H](c2nc3cc(F)c(F)cc3o2)CN1C(=O)c1cc(F)ccc1-c1ncccn1 [Example 52, [(2R,5R)-5-(5,6-Difluoro-1,3-benzoxazol-2-yl)-2-methylpiperidin-1-yl][5-fluoro-2-(pyrimidin-2-yl)phenyl]methanone] the IC50 [1, 3] was 11 nM and the IC50 [2, 4] was 82.9 nM.

C[C@@H]1CC[C@@H](c2nc3cc(Cl)cnc3o2)CN1C(=O)c1ccc(F)cc1-n1nccn1 [Example 72, [(2R,5R)-5-(6-Chloro[1,3]oxazolo[5,4-b]pyridin-2-yl)-2-methylpiperidin-1-yl][4-fluoro-2-(2H-1,2,3-triazol-2-yl)phenyl]methanone] gave an IC50 [1, 3] of 80.5 nM and an IC50 [2, 4] of 412 nM.

C[C@@H]1CC[C@@H](c2nc3ccc(Cl)cc3o2)CN1C(=O)c1ccc(F)cc1-n1nccn1 [Example 47, [(2R,5R)-5-(6-Chloro-1,3-benzoxazol-2-yl)-2-methylpiperidin-1-yl][4-fluoro-2-(2H-1,2,3-triazol-2-yl)phenyl]methanone] was tested, and the IC50 [1, 3] was 16.6 nM and the IC50 [2, 4] was 58.6 nM.

In the case of C[C@@H]1CC[C@@H](c2nc3cc(F)ccc3o2)CN1C(=O)c1cc(Cl)ccc1-c1ncccn1 [Example 33, [5-Chloro-2-(pyrimidin-2-yl)phenyl][(2R,5R)-5-(5-fluoro-1,3-benzoxazol-2-yl)-2-methylpiperidin-1-yl]methanone], the IC50 [1, 3] is reported as 9.2 nM and the IC50 [2, 4] is reported as 44.6 nM.

C[C@@H]1CC[C@@H](c2nc3cc(Cl)ccc3o2)CN1C(=O)c1cc(Cl)ccc1-c1ncccn1 [Example 13, [(2R,5R)-5-(5-Chloro-1,3-benzoxazol-2-yl)-2-methylpiperidin-1-yl][5-chloro-2-(pyrimidin-2-yl)phenyl]methanone] gave an IC50 [1, 3] of 13 nM and an IC50 [2, 4] of 4.4 nM.

Cc1ccc(-n2nccn2)c(C(=O)N2C[C@H](c3nc4ccc(Cl)cc4o3)CC[C@H]2C)c1 [Example 43, [(2R,5R)-5-(6-Chloro-1,3-benzoxazol-2-yl)-2-methylpiperidin-1-yl][5-methyl-2-(2H-1,2,3-triazol-2-yl)phenyl]methanone] showed an IC50 [1, 3] of 9.8 nM and an IC50 [2, 4] of 4.1 nM.

Work on Cc1ccc(-c2ncccn2)c(C(=O)N2C[C@H](c3nc4ccc(F)c(F)c4o3)CC[C@H]2C)c1 [Example 59, [(2R,5R)-5-(6,7-Difluoro-1,3-benzoxazol-2-yl)-2-methylpiperidin-1-yl][5-methyl-2-(pyrimidin-2-yl)phenyl]methanone] yielded an IC50 [1, 3] of 9.2 nM and an IC50 [2, 4] of 4.4 nM.

With Cc1ccc(-n2nccn2)c(C(=O)N2C[C@H](c3nc4cc(C#N)ccc4o3)CC[C@H]2C)c1 [Example 56, 2-[(3R,6R)-6-Methyl-1-[5-methyl-2-(2H-1,2,3-triazol-2-yl)benzoyl]piperidin-3-yl]-1,3-benzoxazole-5-carbonitrile] the IC50 [1, 3] was 10 nM and the IC50 [2, 4] was 164 nM.

Cc1ccc(-c2ncccn2)c(C(=O)N2C[C@H](c3nc4cc(C(F)(F)F)ccc4o3)CC[C@H]2C)c1 [Example 37, [5-Methyl-2-(pyrimidin-2-yl)phenyl]{(2R,5R)-2-methyl-5-[5-(trifluoromethyl)-1,3-benzoxazol-2-yl]piperidin-1-yl}methanone] showed an IC50 [1, 3] of 9.3 nM and an IC50 [2, 4] of 36.5 nM.

Work on Cc1ccc(-n2nccn2)c(C(=O)N2C[C@H](c3nc4cc(Cl)ccc4o3)CC[C@H]2C)c1 (single isomer, unassigned) [Example 9, [(2R*,5R*)-5-(5-Chloro-1,3-benzoxazol-2-yl)-2-methylpiperidin-1-yl][5-methyl-2-(2H-1,2,3-triazol-2-yl)phenyl]methanone] yielded an IC50 [1] of 1.8 nM and an IC50 [2] of 1.2 nM.

C[C@@H]1CC[C@@H](c2nc3cc(Cl)ccc3o2)CN1C(=O)c1cc(C(F)(F)F)ccc1-n1nccn1 [Example 20, [(2R,5R)-5-(5-Chloro-1,3-benzoxazol-2-yl)-2-methylpiperidin-1-yl][2-(2H-1,2,3-triazol-2-yl)-5-(trifluoromethyl)phenyl]methanone] was tested, and the IC50 [1, 3] was 55.7 nM and the IC50 [2, 4] was 108 nM.
